One molecule from US9868707B2, “Small molecule agonists of neurotensin receptor 1” (SANFORD-BURNHAM MEDICAL RESEARCH INSTITUTE, priority 2012, dated 2018) can be followed below.

Data set [1] can be described thus: Aqueous solubility, direct UV kinetic solubility method. The class given is physicochemical. The method, then:
The aqueous solubility of the compound was determined using a direct UV kinetic solubility method (Avdeef, A. 2001. Physicochemical profiling (solubility, permeability and charge state). Curr Top Med Chem 1:277-351) in a 96-well format at pH 5.0, 6.2 and 7.4. Compounds (250 μM) were incubated for 18.0h at room temperature to achieve equilibrium, and then filtered to remove any precipitate. The concentration of the compound in solution was measured by UV absorbance (250-498 nm) and compared to the spectra of precipitation-free reference solutions. Spectroscopically pure 1-Propanol (Sigma, St Louis, Mo.) was used as a cosolvent to suppress precipitation in the reference solutions. The solubility of each compound was determined using μSOL Evolution Plus software v3.2 (pION Inc) and is expressed as the concentration (μg/mL) of a solute in a saturated solution

Data set [2] is described as follows: Plasma protein binding, Rapid Equilibrium Device, human plasma. To be noted: human plasma (EDTA), diluted 1:1 with PBS, pH 7.4, Human, read-out: Plasma Protein Binding (% Bound) (converted). The format is in vitro ADME. The method, then:
(§1) The extent of compound bound to plasma proteins was measured using the Rapid Equilibrium Device (Pierce Thermo Scientific, Rockford Ill.). The base plate was rinsed with […] followed by 2× washes with ultrapure water and allowed to dry. Human and mouse plasma (BioChemed Services, Winchester Va.) collected in EDTA was allowed to thaw at room temperature and then warmed to 37° C., and diluted 1:1 (v:v) with 1×PBS, pH 7.4, prior to the assay. The compound (1.0 and 10.0 μM final) was added to the chamber containing 300 μl plasma:PBS. Next, 500 μl of dialysis buffer (1×PBS, pH7.4) was added to the buffer chambers of the inserts. The chambers were covered with sealing tape and incubated at 37° C. on an orbital shaker at 300× rpm for 4 hours. After the incubation time, a sample volume of 50 μl from the buffer side, representing the free concentration, and an equivalent sample volume from the plasma side, representing the total concentration, i.e. the free concentration+the concentration of drug bound to protein, were transferred from the dialysis cells to a 96 deep well plate for LCMS analysis. Results reported are the mean of each reaction duplicate, normalized to the internal standard, and expressed as a percent compound bound after the incubation time. The amount of compound in the supernatant was determined by LC/MS/MS and the percent of free and bound compounds were calculated with the following formulas: Percent of free parent compound=(amount of compound in receiver chamber/amount of compound in donor chamber)*100.

Data set [3] deals with plasma proteins. The description is as above. The format is in vitro ADME. Particulars: species not stated. On the procedure:
as §1

Data set [4] in a line: Plasma stability, mouse plasma. The format is in vitro ADME. The method, then:
Plasma stability was determined using previously published methods (Kerns, E. H., and Di, L. 2008. Drug-like Properties: Concepts, Structure Design and Methods. Oxford UK: Elsevier). Compound (1.0 μM) was incubated at 37° C. in human or mouse plasma (from blood of healthy donors collected on EDTA) diluted to 50% (v/v) with pH 7.4 isotonic phosphate buffer. At time 0 min and 180 min, aliquots were collected, added to acetonitrile to quench the reaction and precipitate plasma proteins. These samples were centrifuged and the supernatant analyzed by the LC/MS/MS method described above for the presence of the parental compound.

A short description of data set [5]: Metabolic stability in human hepatic microsomes. The class given is in vitro ADME. The method, then: Hepatic metabolic stability was determined using established protocols (Di, L., Kerns, E. H., Hong, Y., Kleintop, T. A., McConnell, O. J., and Huryn, D. M. 2003. Optimization of a higher throughput microsomal stability screening assay for profiling drug discovery candidates. J Biomol Screen 8:453-462). Briefly, the compound (1.0 and 10.0 μM) was preincubated for 10 min at 37° C. in potassium phosphate buffer (pH 7.4) together with 0.5 mg/mL mouse or human hepatic microsomes (Xenotech, Kansas City). The cofactor mixture comprising NADP, G6P, and G6P-DH (BD Biosciences) was added, and aliquots were taken after 0 and 60 min. Samples were analyzed on an Acquity UPLC, coupled with a sample organizer, and interfaced with a triple quadrupole ABI 4000 LC/MS/MS using the methodology described above. The percentage of the compound remaining after a 60 min incubation period was calculated according the following equation: [(area at time 60 min)/(area at time 0 min)]×100%.

The test system of data set [6] is GPCR binding assay panel (˜40 receptors). The experiment in a line: PDSP GPCR binding assay panel. From the text:
(§2) However, these activities in in vitro binding assays may not translate into functional modulation of these receptors.

Data set [7] concerns the target T1, MOR (Homo sapiens, UniProt P35372).
T1 construct: Panlabs/Ricerca (contract panel)
Kind of data set: Panlabs/Ricerca lead profiling panel, MOR. The format is binding. To be noted: @ 10 μM.
Source text: as §2

The subject of data set [8] is signal. The experiment in a line: Panlabs/Ricerca lead profiling panel, signal. The class given is binding. Particulars: @ 10 μM.
Source text: as §2

Data set [9] has as its system adrenergic receptors (α1a, α1B, α1D, α2A). The experiment in a line: Panlabs panel, adrenergic receptors. The class given is binding. Particulars: @ 10 μM.
Source text: as §2

Read-outs that look alike come from different tables or passages of the source. Where only a bound is given, the exact number is not on record here.

T1 sequence (P35372 whole entry): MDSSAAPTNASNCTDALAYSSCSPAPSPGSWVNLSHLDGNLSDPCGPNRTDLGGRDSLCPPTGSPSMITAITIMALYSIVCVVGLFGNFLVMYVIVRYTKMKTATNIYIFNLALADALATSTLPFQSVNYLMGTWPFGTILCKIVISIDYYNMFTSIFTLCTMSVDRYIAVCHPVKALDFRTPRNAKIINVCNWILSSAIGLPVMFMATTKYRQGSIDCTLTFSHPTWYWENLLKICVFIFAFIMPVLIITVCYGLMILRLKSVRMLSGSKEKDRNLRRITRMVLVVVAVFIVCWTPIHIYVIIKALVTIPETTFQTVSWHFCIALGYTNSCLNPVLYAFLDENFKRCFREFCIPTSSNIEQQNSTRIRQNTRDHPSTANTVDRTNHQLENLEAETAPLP

Regarding `COc1cc2nc(C3CC3)nc(N3CCN(c4ccccc4OC)CC3)c2cc1OC` [Compound 315, 2-cyclopropyl-6,7-dimethoxy-4-(4-(2-methoxyphenyl)piperazin-1-yl)quinazoline], the solubility – broadly, the dissolved amount per volume that the medium holds – at 18 h is 0.45 µg/mL in data set [1] (1x PBS, pH 7.4, aqueous buffer, kinetic from dmso stock, read-out: Aqueous Solubility in 1x PBS, pH 7.4); 1.2 µM in data set [1] (pH 7.4, molar units, read-out: Aqueous Solubility in pION's buffer); more than 297 µM in data set [1] (pION's buffer, aqueous buffer, kinetic from dmso stock, pH 5.0, molar units, read-out: Aqueous Solubility in pION's buffer); more than 125 µg/mL in [1] (pION's buffer, aqueous buffer, kinetic from dmso stock, pH 5.0, read-out: Aqueous Solubility in pION's buffer); 0.52 µg/mL in data set [1] (pION's buffer, pH 7.4, aqueous buffer, kinetic from dmso stock, read-out: Aqueous Solubility in pION's buffer). Besides, the “Aqueous Solubility in 1x PBS, pH 7.4” value in data set [1] (1x PBS, pH 7.4, molar units) is on record as 1.1 μM. Moreover, the “Aqueous Solubility in pION's buffer” value in [1] (pH 6.2) is reported as 9.0 μg/mL. In [2] (1 μM), the fraction unbound at 4 h, 1 μM was 0.0055. The fraction unbound at 4 h, 10 μM in data set [2] (10 μM) is 0.0078. Also, in [3], the “plasma protein binding” value is “highly plasma protein bound”. Further, in data set [4], the “Plasma Stability (% Remaining at 3 hrs)” value is recorded as 99.55%. For the same molecule, in [5], the “Hepatic Microsome Stability (% Remaining at 1 hr)” value is recorded as 1.36%. In addition, in data set [5], the “metabolism in vitro with liver homogenates” value is given as “metabolized rapidly”. Moreover, the “promiscuity in GPCR binding assay panel” value in [6] (at 10 μM, ˜40 receptors tested) is “moderately promiscuous”. Moreover, the Ki in [6] (on 7 receptors, read-out: Kis in GPCR binding assay panel) is less than 10 µM. In data set [7], the “activity at MOR” value came to 86%. In [8], this molecule yielded an activity at signal of 69%. Further, in [9], the “activity across adrenergic receptors α1a, α1B, α1D, α2A” value is reported as 63-100%.
